Measurements taken from PubChem BioAssay (NCI).
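In this assay, cells in 96-well plates receive the compound at five concentrations for 48 hours. Endpoints are linearly interpolated between the surrounding concentrations. Here, GI50 denotes the concentration required for 50% inhibition of growth. TGI is the concentration that stops growth completely.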

What was measured:
Assay in all cases: NCI anticancer screen, dose series, 48 h
SN12C renal = system: SN12C renal
SF-268 CNS = system: SF-268 CNS
M14 melanoma = system: M14 melanoma
RXF 393 renal = system: RXF 393 renal
NCI-H23 lung = system: NCI-H23 lung
SR leukemia = system: SR leukemia
MDA-MB-435 = system: MDA-MB-435
EKVX NSCLC = system: EKVX NSCLC

Compound: COc1cccc(C2C(C#N)=C(N)Oc3cc(OC)ccc32)c1 (centres undefined)
- GI50 (SN12C renal): 0.0773 µM
- TGI (SN12C renal): > 41.8 µM
- GI50 (SF-268 CNS): 0.0762 µM
- TGI (SF-268 CNS): > 82.3 µM
- GI50 (M14 melanoma): 0.0271 µM
- TGI (M14 melanoma): > 100 µM
- GI50 (RXF 393 renal): 0.026 µM
- TGI (RXF 393 renal): 81.1 µM
- GI50 (NCI-H23 lung): 0.0415 µM
- TGI (NCI-H23 lung): > 33 µM
- GI50 (SR leukemia): 0.0256 µM
- TGI (SR leukemia): > 33.8 µM

Compound: COC(=O)c1cc2c(cc1Cl)SC(N(N(C)C)S(=O)(=O)c1ccc(Cl)cc1)=NS2(=O)=O
- GI50 (SN12C renal): 19.2 µM
- TGI (SN12C renal): 47.7 µM
- GI50 (SF-268 CNS): 20.1 µM
- TGI (SF-268 CNS): 45.5 µM
- GI50 (MDA-MB-435): 16.3 µM
- TGI (MDA-MB-435): 33.3 µM
- GI50 (M14 melanoma): 15.8 µM
- TGI (M14 melanoma): 32 µM
- GI50 (EKVX NSCLC): 17 µM
- TGI (EKVX NSCLC): 33 µM
- GI50 (NCI-H23 lung): 19.7 µM
- TGI (NCI-H23 lung): 43.5 µM
- GI50 (SR leukemia): 19.8 µM
- TGI (SR leukemia): 40.9 µM

Compound: COc1ccc(C(=O)N/N=C/c2ccc(O)cc2O)cc1Nc1ccnc(C(F)(F)F)c1
- GI50 (SN12C renal): 1.15 µM
- TGI (SN12C renal): > 47 µM
- GI50 (SF-268 CNS): 0.299 µM
- TGI (SF-268 CNS): 16.7 µM
- GI50 (MDA-MB-435): 0.507 µM
- TGI (MDA-MB-435): 21.1 µM
- GI50 (M14 melanoma): 0.731 µM
- TGI (M14 melanoma): 5.55 µM
- GI50 (RXF 393 renal): 3.3 µM
- TGI (RXF 393 renal): 15.7 µM
- GI50 (EKVX NSCLC): 0.482 µM
- TGI (EKVX NSCLC): 27.9 µM
- GI50 (NCI-H23 lung): 2.39 µM
- TGI (NCI-H23 lung): 20.3 µM
- GI50 (SR leukemia): 0.148 µM
- TGI (SR leukemia): 0.452 µM

Compound: CN1c2ccccc2C(C)(C)C12CC(c1ccc(Cl)c(S(=O)(=O)N3CCCC3)c1)=NO2 (centres undefined)
- GI50 (SN12C renal): > 100 µM
- TGI (SN12C renal): > 100 µM
- GI50 (SF-268 CNS): > 100 µM
- TGI (SF-268 CNS): > 100 µM
- GI50 (MDA-MB-435): > 100 µM
- TGI (MDA-MB-435): > 100 µM
- GI50 (M14 melanoma): > 100 µM
- TGI (M14 melanoma): > 100 µM
- GI50 (RXF 393 renal): > 100 µM
- TGI (RXF 393 renal): > 100 µM
- GI50 (EKVX NSCLC): > 100 µM
- TGI (EKVX NSCLC): > 100 µM
- GI50 (NCI-H23 lung): > 100 µM
- TGI (NCI-H23 lung): > 100 µM

Compound: Nc1nc(Nc2ccc3c(c2)CCC(N2CCCC2)CC3)nn1-c1cc2c(nn1)-c1ccccc1CCC2 (centres undefined)
- GI50 (SN12C renal): 0.378 µM
- TGI (SN12C renal): 1.81 µM
- GI50 (SF-268 CNS): 1.25 µM
- TGI (SF-268 CNS): 3.07 µM
- GI50 (MDA-MB-435): 1.32 µM
- TGI (MDA-MB-435): 2.74 µM
- GI50 (M14 melanoma): 0.957 µM
- TGI (M14 melanoma): 2.27 µM
- GI50 (RXF 393 renal): 0.631 µM
- TGI (RXF 393 renal): 1.87 µM
- GI50 (NCI-H23 lung): 1.71 µM
- TGI (NCI-H23 lung): 3.72 µM
- GI50 (SR leukemia): 0.42 µM
- TGI (SR leukemia): 2.37 µM

Compound: NCC(=O)CCC(=O)O
- GI50 (SN12C renal): > 100 µM
- TGI (SN12C renal): > 100 µM
- GI50 (SF-268 CNS): > 100 µM
- TGI (SF-268 CNS): > 100 µM
- GI50 (MDA-MB-435): > 100 µM
- TGI (MDA-MB-435): > 100 µM
- GI50 (M14 melanoma): > 100 µM
- TGI (M14 melanoma): > 100 µM
- GI50 (RXF 393 renal): > 100 µM
- TGI (RXF 393 renal): > 100 µM
- GI50 (EKVX NSCLC): > 100 µM
- TGI (EKVX NSCLC): > 100 µM
- GI50 (NCI-H23 lung): > 100 µM
- TGI (NCI-H23 lung): > 100 µM
- GI50 (SR leukemia): > 100 µM
- TGI (SR leukemia): > 100 µM

Compound: CC(C)(C)n1cc(-c2ccnc(NCCNS(=O)(=O)c3cccc4ccccc34)c2)c(-c2cccc(F)c2)n1
- GI50 (SN12C renal): 13.7 µM
- TGI (SN12C renal): 29 µM
- GI50 (SF-268 CNS): 40.3 µM
- TGI (SF-268 CNS): > 100 µM
- GI50 (MDA-MB-435): 19.1 µM
- TGI (MDA-MB-435): 38.7 µM
- GI50 (M14 melanoma): 11.7 µM
- TGI (M14 melanoma): 48.2 µM
- GI50 (RXF 393 renal): 12.4 µM
- TGI (RXF 393 renal): 30.2 µM
- GI50 (EKVX NSCLC): 17.2 µM
- TGI (EKVX NSCLC): > 100 µM
- GI50 (NCI-H23 lung): 14.9 µM
- TGI (NCI-H23 lung): 59.1 µM
- GI50 (SR leukemia): 9.27 µM
- TGI (SR leukemia): > 100 µM

Compound: c1ccc2c(c1)ccc1c3ccccc3ccc21
- GI50 (SN12C renal): > 50 µM
- TGI (SN12C renal): > 50 µM
- GI50 (SF-268 CNS): > 50 µM
- TGI (SF-268 CNS): > 50 µM
- GI50 (MDA-MB-435): > 50 µM
- TGI (MDA-MB-435): > 50 µM
- GI50 (M14 melanoma): > 50 µM
- TGI (M14 melanoma): > 50 µM
- GI50 (RXF 393 renal): > 50 µM
- TGI (RXF 393 renal): > 50 µM
- GI50 (NCI-H23 lung): > 50 µM
- TGI (NCI-H23 lung): > 50 µM
